Assay results as given in ChEMBL document CHEMBL4715874, “In Vivo Screening of Xanthones from Garcinia oligantha Identified Oliganthin H as a Novel Natural Inhibitor of Convulsions” (J Nat Prod, 2020).
Calls of active or inactive are those of the source. No cut-off for these calls is given here.

Tests used:
Danio rerio [1] = species: Danio rerio; assay: Anticonvulsant activity in AB zebra fish larvae assessed as reduction in PTZ-induced convulsant behavior by measuring swimming distance at 0.7 uM pretreated for 6 hrs followed by PTZ-stimulation and measured every 5 mins for 1 hr; type: functional, organism-based; details: time 7.0 hrs
[2] = Toxicity in AB zebra fish larvae assessed as maximum tolerated concentration after 6 hrs; parameters: species or system Danio rerio; details: zebrafish, read-out: MTC
[3] = Ratio of MTC for toxicity in AB zebra fish larvae to lowest observed effect concentration for Anticonvulsant activity in AB zebra fish larvae assessed as reduction in PTZ-induced convulsant behavior; parameters: species or system Danio rerio
[4] = Toxicity in AB zebra fish larvae assessed as mortality at >= 6.2 uM after 6 hrs relative to control; parameters: species or system Danio rerio; details: zebrafish
Danio rerio [5] = species: Danio rerio; assay: Anticonvulsant activity in AB zebra fish larvae assessed as reduction in PTZ-induced convulsant behavior by measuring lowest observed effect concentration pretreated for 6 hrs followed by PTZ-stimulation and measured every 5 mins for 1 hr; type: functional; details: time 7 hrs
[6] = Neurotoxicity in AB zebra fish larvae assessed as decrease in total swimming distance at <= MTC after 6 hrs; type: toxicity, Danio rerio; details: zebrafish
[7] = Neurotoxicity in AB zebra fish larvae at 1.5 uM after 6 hrs; type: toxicity, Danio rerio; details: zebrafish

SMILES: CC(C)=CCC12CC(C(C)(C)O)OC1=C(O)C(=O)c1oc3c4c(cc(O)c3c(=O)c12)OC(C)(C)C=C4 (configuration not stated)
- Activity (Danio rerio [1]): Active
- MNTC at 6 h [2]: 700 nM
- Ratio [3]: 1
- mortality at 6 h [4]: 100%
- Activity (Danio rerio [5]): 0.7 µM
- Activity [6]: Non-Toxic
- Activity [7]: Toxic
